Assays:
[1] = test system: mildew of cucumbers (Sphaerotheca fuliginea); assay: Protective activity against mildew of cucumbers; assay type: in vivo; conditions: cucumber seedlings; for percentage of infection of leaves at the prescribed concentration of active compound: sprayed 20 h before inoculation, 7 days, untreated 90
Procedure: The active compounds were used as aqueous preparations of active compounds which contained the active compound in a concentration of 250 ppm, 63 ppm, 16 ppm and 4 ppm, respectively. The aqueous preparation of active compound was prepared by diluting a stock solution of 10% by weight of active compound, 63% by weight of cyclohexanone and 27% by weight of emulsifier (20 parts by weight of Nekanil® LN (Lutensol® AP6, wetting agent having emulsifying and dispersing action based on ethoxylated alkylphenols) and 10 parts by weight of Wettol® EM (nonionic emulsifier based on ethoxylated castor oil)) with water in the amount required for the desired concentration.
Leaves of cucumber seedlings of the cultivar “Chinesische Schlange” which had been grown in pots were, at the cotyledon stage, sprayed to runoff point with an aqueous preparation of active compound. 20 hours after the spray coating had dried on, the plants were inoculated with an aqueous spore suspension of mildew of cucumbers (Sphaerotheca fuliginea). The plants were then cultivated in a greenhouse at 20-24° C. and 60-80% relative atmospheric humidity for 7 days. The extent of the mildew development was then determined visually in % infection of the cotyledon area.

[2] = test system: mildew of wheat (Erysiphe [syn. Blumeria] graminis forma specialis tritici); assay: Protective activity against mildew of wheat; assay type: in vivo; conditions: wheat seedlings, sprayed 24 h before inoculation, 7 days, untreated 85
Procedure: The active compounds were used as aqueous preparations of active compounds which contained the active compound in a concentration of 250 ppm, 63 ppm, 16 ppm and 4 ppm, respectively. The aqueous preparation of active compound was prepared by diluting a stock solution of 10% by weight of active compound, 63% by weight of cyclohexanone and 27% by weight of emulsifier (20 parts by weight of Nekanil® LN (Lutensol® AP6, wetting agent having emulsifying and dispersing action based on ethoxylated alkylphenols) and 10 parts by weight of Wettol® EM (nonionic emulsifier based on ethoxylated castor oil)) with water in the amount required for the desired concentration. The first fully developed leaves of the wheat seedlings of the variety “Kanzler” which had been grown in pots were sprayed to runoff point with an aqueous preparation of active compound prepared from a stock solution containing 10% of active compound, […]. 24 hours after the spray coating had dried on, the plants were inoculated with an aqueous spore suspension of mildew of wheat (Erysiphe [syn. Blumeria] graminis forma specialis. tritici). The plants were then cultivated in a greenhouse at 20-24° C. and 60-90% relative atmospheric humidity. After 7 days the extent of the mildew development was determined visually in % infection of the leaves.

| Structure (SMILES) | infection of the cotyledon area ([1]; 4 ppm, untreated plants 90% infected) | percentage of infection of leaves at the prescribed concentration of active compound ([2]; 16 ppm) [%] | percentage of infection of leaves at the prescribed concentration of active compound ([2]; 63 ppm) [%] | percentage of infection of leaves at the prescribed concentration of active compound ([2]; 250 ppm) [%] | percentage of infection of leaves at the prescribed concentration of active compound ([1]; 16 ppm) [%] | percentage of infection of leaves at the prescribed concentration of active compound ([1]; 63 ppm) [%] | percentage of infection of leaves at the prescribed concentration of active compound ([1]; 250 ppm) [%] |
| --- | --- | --- | --- | --- | --- | --- | --- |
| CCCn1c(=NOC)oc2ccc(Cl)cc2c1=O [Compound I - A1.2, O-Methyl (6-chloro-3-propyl-4H-1,3-benz[e]oxazin-4(3H)-one)-2-oxime] | no infection |  |  |  |  |  |  |
| CCCn1c(=NOC)oc2ccc(Cl)cc2c1=O [I - A1.2] |  | 0 | 0 | 0 | 0 | 0 | 0 |
| CCCn1c(=NOC)oc2ccc(I)cc2c1=O [I - A1.4] |  | 0 | 0 | 0 | 0 | 0 | 0 |
| CCCn1c(=NOCC)oc2ccc(I)cc2c1=O [I - A1.8] |  | 0 | 0 | 0 | 0 | 0 | 0 |
| CCCON=c1oc2ccc(I)cc2c(=O)n1CCC [I - A1.12] |  | 0 | 0 | 0 | 0 | 0 | 0 |
| CCCCn1c(=NOC)oc2ccc(I)cc2c1=O [I - A1.20] |  | 0 | 0 | 0 | 0 | 0 | 0 |
| CCCCn1c(=NOCC)oc2ccc(I)cc2c1=O [I - A1.24] |  | 0 | 0 | 0 | 0 | 0 | 0 |
| CCCCn1c(=NOCCC)oc2ccc(I)cc2c1=O [I - A1.28] |  | 0 | 0 | 0 | 0 | 0 | 0 |
| CON=c1oc2ccc(I)cc2c(=O)n1CC1CC1 [I - A1.68] |  | 0 | 0 | 0 | 0 | 0 | 0 |
| CCON=c1oc2ccc(I)cc2c(=O)n1CC1CC1 [I - A1.72] |  | 0 | 0 | 0 | 0 | 0 | 0 |
| CCCON=c1oc2ccc(I)cc2c(=O)n1CC1CC1 [I - A1.76] |  | 0 | 0 | 0 | 0 | 0 | 0 |
| CCCn1c(=NOC)oc2ccc(C)cc2c1=O [I - A1.132] |  |  |  |  | 10 | 10 | 0 |
| CCCn1c(=NOC)oc2ccc(OC)cc2c1=O [I - A1.133] |  | 20 | 0 | 0 | 10 | 5 | 0 |
| CC(C)ON=c1oc2ccc(I)cc2c(=O)n1CC1CC1 [I - A1.134] |  | 0 | 0 | 0 | 0 | 0 | 0 |
| O=c1c2cc(I)ccc2oc(=NOCC2CC2)n1CC1CC1 [I - A1.135] |  | 5 | 0 | 0 | 3 | 0 | 0 |
| CCCCn1c(=NOCC2CC2)oc2ccc(I)cc2c1=O [I - A1.136] |  | 0 | 0 | 0 | 0 | 0 | 0 |
| CCCn1c(=NOCC2CC2)oc2ccc(I)cc2c1=O [I - A1.137] |  | 0 | 0 | 0 | 0 | 0 | 0 |
| CCCCn1c(=NOC(C)C)oc2ccc(I)cc2c1=O [I - A1.138] |  | 0 | 0 | 0 | 0 | 0 | 0 |
| CCCn1c(=NOC(C)C)oc2ccc(I)cc2c1=O [I - A1.139] |  | 0 | 0 | 0 | 0 | 0 | 0 |
